Data from publication PMC7583591 (Computational Biology and Chemistry, 2020).

Molecular target: SARS-CoV-2 M^pro (Severe acute respiratory syndrome coronavirus 2, UniProt P0DTD1)
Assay: biochemical
Conditions: for inhibition at 50 µM: read-out: % Protease inhibition at 50 μM ligand concentration

| SMILES | % Protease inhibition at 50 μM ligand concentration (50 μM) [%] | IC50 [µM] | inhibition at 50 µM [%] |
| --- | --- | --- | --- |
| O=C(Nc1ccccc1-c1cn2c(CN3CCNCC3)csc2n1)c1cnc2ccccc2n1 [SRT1720] | 9.3 ± 2.2 |  |  |
| C[S@@+]([O-])CCCCN=C=S [L-sulforaphane] |  | > 128 | 8.4 ± 2.7 |
| Oc1ccc(/C=C/c2cc(O)cc(O)c2)cc1 [Resveratrol] |  | > 128 | 1.8 ± 0.9 |
| Cc1cc(O)c2c(=O)c3c(O)cc(O)c4c5c(O)cc(O)c6c(=O)c7c(O)cc(C)c8c1c2c(c34)c(c78)c65 [Hypericin] |  | 63.6 ± 5.7 | 42.8 ± 8.2 |
